Assay results reported in patent publication US12325697B2 (Nimbus Clio, Inc., priority 2021, dated 2025).

Molecular target: Recombinant human Cbl-b (aa 36-427) (Homo sapiens (Human), UniProt Q13191)
Test: Cbl-b Biochemical Assay (TR-FRET)
Settings: read-out: TR-FRET hCbl-b IC50
Outline: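 Two-step TR-FRET: 6 nM biotinylated Cbl-b preincubated 30-60 min with compound, then 60 min at RT with 1-2.5 nM Src-Zap70 and 0.5 mM ATP in HEPES pH 7.0 buffer, 1% DMSO. Stopped with 5 mM EDTA plus 100 nM UBE2D2-Ub-FL-BODIPY and 1 nM streptavidin-Tb, 60 min; 520 nm signal; IC50 from 4-parameter fit.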

Sequence of Recombinant human Cbl-b (aa 36-427) (Q13191 36-427): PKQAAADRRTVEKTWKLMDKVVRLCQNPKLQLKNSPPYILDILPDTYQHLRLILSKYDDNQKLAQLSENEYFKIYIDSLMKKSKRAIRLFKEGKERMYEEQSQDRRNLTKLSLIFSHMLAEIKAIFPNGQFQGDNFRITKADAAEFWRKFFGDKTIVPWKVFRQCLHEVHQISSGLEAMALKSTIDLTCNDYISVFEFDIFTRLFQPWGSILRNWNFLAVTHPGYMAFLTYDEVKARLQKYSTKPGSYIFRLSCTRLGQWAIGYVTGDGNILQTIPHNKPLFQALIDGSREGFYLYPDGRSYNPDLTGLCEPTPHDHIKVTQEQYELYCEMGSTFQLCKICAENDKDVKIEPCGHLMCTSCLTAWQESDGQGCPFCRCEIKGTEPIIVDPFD

Structure (SMILES) | IC50
CCNc1cc(-c2ccccc2-c2nncn2C)cc(N2Cc3c(cc(CN4CC[C@H](F)C4)cc3C(F)(F)F)C2=O)n1 [AJ-1, (S)-2-(6-(Ethylamino)-4-(2-(4-methyl-4H-1,2,4-triazol-3-yl)phenyl)pyridin-2-yl)-6-((3-fluoropyrrolidin-1-yl)methyl)-4-(trifluoromethyl)isoindolin-1-one] | ≤ 0.2 µM
Cn1cnnc1-c1ccc(Br)cc1-c1cccc(N2Cc3c(cccc3C(F)(F)F)C2=O)c1 [AAJ-9, 2-(5′-Bromo-2′-(4-methyl-4H-1,2,4-triazol-3-yl)-[1,1′-biphenyl]-3-yl)-4-(trifluoromethyl)isoindolin-1-one] | 1 to 10 µM
CCNc1cc(-c2c(-c3nncn3C)cnn2C)cc(NC(=O)c2cc(C)nc(C3CC3)n2)n1 [ABJ-4, 2-Cyclopropyl-N-(6-(ethylamino)-4-(1-methyl-4-(4-methyl-4H-1,2,4-triazol-3-yl)-1H-pyrazol-5-yl)pyridin-2-yl)-6-methylpyrimidine-4-carboxamide] | 0.2 to 1 µM
CCNc1cc(-c2ccccc2-c2nncn2C)cc(N2Cc3c(cc(CN4CCC(F)(F)C(C)C4)cc3C(F)(F)F)C2=O)n1 (centres unmarked) [AK-2, 6-((4,4-Difluoro-3-methylpiperidin-1-yl)methyl)-2-(6-(ethylamino)-4-(2-(4-methyl-4H-1,2,4-triazol-3-yl)phenyl)pyridin-2-yl)-4-(trifluoromethyl)isoindolin-1-one] | ≤ 0.2 µM
C[C@@H]1CN(Cc2cc3c(c(C(F)(F)F)c2)CN(c2cccc(-c4ccccc4-c4nncn4C)c2)C3=O)CCO1 [Example X-2, (R)-2-(2′-(4-Methyl-4H-1,2,4-triazol-3-yl)-[1,1′-biphenyl]-3-yl)-6-((2-methylmorpholino)methyl)-4-(trifluoromethyl)isoindolin-1-one] | ≤ 0.2 µM
Cc1nc[nH]c1-c1ccccc1-c1cccc(N2Cc3c(cccc3C(F)(F)F)C2=O)c1 [AAV-6, 2-(2′-(4-Methyl-1H-imidazol-5-yl)-[1,1′-biphenyl]-3-yl)-4-(trifluoromethyl)isoindolin-1-one] | 1 to 10 µM
CCNc1cc(-c2ccccc2-c2nncn2C)cc(N2Cc3c(cc(CN4CCC5(CC5)C4)cc3C(F)(F)F)C2=O)n1 [ABR-1, 6-((5-Azaspiro [2.4]heptan-5-yl)methyl)-2-(6-(ethylamino)-4-(2-(4-methyl-4H-1,2,4-triazol-3-yl)phenyl)pyridin-2-yl)-4-(trifluoromethyl)isoindolin-1-one] | ≤ 0.2 µM
Cn1cnnc1-c1ccccc1-c1cccc(N2Cc3c(cc(CO)cc3C(F)(F)F)C2=O)c1 [Example P-2, 6-(Hydroxymethyl)-2-(2′-(4-methyl-4H-1,2,4-triazol-3-yl)-[1,1′-biphenyl]-3-yl)-4-(trifluoromethyl)isoindolin-1-one] | 0.2 to 1 µM
Cn1cnnc1-c1ccccc1-c1cc(C2CC2)nc(N2Cc3c(cc(CN4CCC5(CC5)C4)cc3C(F)(F)F)C2=O)c1 [ACL-1, 6-((5-Azaspiro [2.4]heptan-5-yl)methyl)-2-(6-cyclopropyl-4-(2-(4-methyl-4H-1,2,4-triazol-3-yl)phenyl)pyridin-2-yl)-4-(trifluoromethyl)isoindolin-1-one] | ≤ 0.2 µM
Cc1conc1-c1ccccc1-c1cccc(N2Cc3c(cccc3C(F)(F)F)C2=O)c1 [AAZ-7, 2-(2′-(4-Methylisoxazol-3-yl)-[1,1′-biphenyl]-3-yl)-4-(trifluoromethyl)isoindolin-1-one] | 1 to 10 µM
Cn1cnnc1-c1ccccc1-c1cc(C(=O)O)cc(N2Cc3c(cccc3C(F)(F)F)C2=O)c1 [Example I-1, 2′-(4-Methyl-4H-1,2,4-triazol-3-yl)-5-(1-oxo-4-(trifluoromethyl)isoindolin-2-yl)-[1,1′-biphenyl]-3-carboxylic acid] | 10 to 50 µM
CCOc1cc(-c2c(-c3nncn3C)cnn2C)cc(N2Cc3c(cccc3C(F)(F)F)C2=O)n1 [ABH-2, 2-(6-Ethoxy-4-(1-methyl-4-(4-methyl-4H-1,2,4-triazol-3-yl)-1H-pyrazol-5-yl)pyridin-2-yl)-4-(trifluoromethyl)isoindolin-1-one] | 0.2 to 1 µM
Cn1cnnc1-c1ccccc1-c1cccc(N2Cc3c(cc(CN4CC[C@H](F)C4)cc3C(F)(F)F)C2=O)c1 [Example V-2, (S)-6-((3-Fluoropyrrolidin-1-yl)methyl)-2-(2′-(4-methyl-4H-1,2,4-triazol-3-yl)-[1,1′-biphenyl]-3-yl)-4-(trifluoromethyl)isoindolin-1-one] | ≤ 0.2 µM
CCNc1cc(-c2c(-c3nncn3C)cnn2C)cc(N2Cc3c(cc(CN4CCC[C@H](C)C4)cc3C(F)(F)F)C2=O)n1 [ACF-1, (S)-2-(6-(Ethylamino)-4-(1-methyl-4-(4-methyl-4H-1,2,4-triazol-3-yl)-1H-pyrazol-5-yl)pyridin-2-yl)-6-((3-methylpiperidin-1-yl)methyl)-4-(trifluoromethyl)isoindolin-1-one] | ≤ 0.2 µM
CCNc1cc(-c2ccccc2-c2nncn2C)cc(N2Cc3c(cc(CN4CC(F)C4)cc3C(F)(F)F)C2=O)n1 [AG-1, 2-(6-(Ethylamino)-4-(2-(4-methyl-4H-1,2,4-triazol-3-yl)phenyl)pyridin-2-yl)-6-((3-fluoroazetidin-1-yl)methyl)-4-(trifluoromethyl)isoindolin-1-one] | ≤ 0.2 µM
CCNc1cc(-c2c(-c3nncn3C)cnn2C)cc(N2Cc3c(cc(C(=O)N4CC[C@H](O)C4)cc3C(F)(F)F)C2=O)n1 [ACS-4, (S)-2-(6-(Ethylamino)-4-(1-methyl-4-(4-methyl-4H-1,2,4-triazol-3-yl)-1H-pyrazol-5-yl)pyridin-2-yl)-6-(3-hydroxypyrrolidine-1-carbonyl)-4-(trifluoromethyl)isoindolin-1-one] | ≤ 0.2 µM
Cn1cnnc1-c1ccccc1-c1cccc(NC(=O)c2cc(=O)[nH]c(C3CC3)n2)c1 [AAP-1, 2-Cyclopropyl-N-(2′-(4-methyl-4H-1,2,4-triazol-3-yl)-[1,1′-biphenyl]-3-yl)-6-oxo-1,6-dihydropyrimidine-4-carboxamide] | 1 to 10 µM
CCNc1cc(-c2c(-c3nncn3C)cnn2C)cc(C(=O)O)n1 [ABQ-1, 6-(Ethylamino)-4-(1-methyl-4-(4-methyl-4H-1,2,4-triazol-3-yl)-1H-pyrazol-5-yl)picolinic acid] | 10 to 50 µM
Cn1cnnc1-c1cnn(C)c1-c1cccc(N2Cc3c(cc(CN4CCC5(CC5)C4)cc3C(F)(F)F)C2=O)c1 [AAD-1, 6-((5-Azaspiro [2.4]heptan-5-yl)methyl)-2-(3-(1-methyl-4-(4-methyl-4H-1,2,4-triazol-3-yl)-1H-pyrazol-5-yl)phenyl)-4-(trifluoromethyl)isoindolin-1-one] | ≤ 0.2 µM
CCNc1cc(-c2c(-c3nncn3C)cnn2C)cc(NC(=O)c2cc(CO)cc(C3CC3)n2)n1 [ABZ-7, 6-Cyclopropyl-N-(6-(ethylamino)-4-(1-methyl-4-(4-methyl-4H-1,2,4-triazol-3-yl)-1H-pyrazol-5-yl)pyridin-2-yl)-4-(hydroxymethyl) picolinamide] | ≤ 0.2 µM
CCNc1cc(-c2c(-c3nncn3C)cnn2C)cc(N2Cc3c(cccc3C(F)(F)F)C2=O)c1 [ABX-6, 2-[3-(Ethylamino)-5-[2-methyl-4-(4-methyl-1,2,4-triazol-3-yl)pyrazol-3-yl]phenyl]-4-(trifluoromethyl)-3H-isoindol-1-one] | ≤ 0.2 µM
CCNc1cc(-c2ccccc2-c2nncn2C)cc(N2Cc3c(cc(CN4CCC[C@H](C)C4)cc3C(F)(F)F)C2=O)n1 [AF-1, (S)-2-(6-(Ethylamino)-4-(2-(4-methyl-4H-1,2,4-triazol-3-yl)phenyl)pyridine-2-yl)6-((3-methylpiperidin-1-yl)methyl)-4-(trifluoromethyl)isoindolin-1-one] | ≤ 0.2 µM
CCNc1cc(-c2ccccc2-c2nncn2C)cc(N2Cc3c(cc(CN4CCOCC4)cc3C(F)(F)F)C2=O)n1 [AM-2, 2-(6-(Ethylamino)-4-(2-(4-methyl-4H-1,2,4-triazol-3-yl)phenyl)pyridin-2-yl)-6-(morpholinomethyl)-4-(trifluoromethyl)isoindolin-1-one] | ≤ 0.2 µM
Cn1cnnc1-c1ccccc1-c1cccc(N2Cc3c(cc(CN4CCC5(CC5)C4)cc3C(F)(F)F)C2=O)c1 [AAQ-1, 6-((5-Azaspiro [2.4]heptan-5-yl)methyl)-2-(2′-(4-methyl-4H-1,2,4-triazol-3-yl)-[1,1′-biphenyl]-3-yl)-4-(trifluoromethyl)isoindolin-1-one] | ≤ 0.2 µM
CCNc1cc(-c2c(-c3nncn3C)cnn2C)cc(N2Cc3c(cc(CNCCO)cc3C(F)(F)F)C2=O)n1 [ACI-1, 2-(6-(Ethylamino)-4-(1-methyl-4-(4-methyl-4H-1,2,4-triazol-3-yl)-1H-pyrazol-5-yl)pyridin-2-yl)-6-(((2-hydroxyethyl)amino)methyl)-4-(trifluoromethyl)isoindolin-1-one] | ≤ 0.2 µM
Cn1cnnc1-c1cnn(C)c1-c1ccnc(N2Cc3c(cccc3C(F)(F)F)C2=O)c1 [AAM-3, 2-(4-(1-Methyl-4-(4-methyl-4H-1,2,4-triazol-3-yl)-1H-pyrazol-5-yl)pyridin-2-yl)-4-(trifluoromethyl)isoindolin-1-one] | 1 to 10 µM
Cn1cnnc1-c1ccccc1-c1cc(C2CC2)nc(N2Cc3c(cc(CO)cc3C(F)(F)F)C2=O)c1 [ACK-3, 2-(6-Cyclopropyl-4-(2-(4-methyl-4H-1,2,4-triazol-3-yl)phenyl)pyridin-2-yl)-6-(hydroxymethyl)-4-(trifluoromethyl)isoindolin-1-one] | ≤ 0.2 µM
CCNc1cc(-c2ccccc2-c2nncn2C)cc(N2Cc3c(cc(CN4CCO[C@H](C)C4)cc3C(F)(F)F)C2=O)n1 [AN-1, (R)-2-(6-(Ethylamino)-4-(2-(4-methyl-4H-1,2,4-triazol-3-yl)phenyl)pyridin-2-yl)-6-((2-methylmorpholino)methyl)-4-(trifluoromethyl)isoindolin-1-one] | ≤ 0.2 µM
Cn1cnnc1-c1ccccc1-c1cccc(N2Cc3c(cc(CN[C@H]4CCC[C@H]4O)cc3C(F)(F)F)C2=O)c1 [AA-2, 6-((((1S,2R)-2-Hydroxycyclopentyl)amino)methyl)-2-(2′-(4-methyl-4H-1,2,4-triazol-3-yl)-[1,1′-biphenyl]-3-yl)-4-(trifluoromethyl)isoindolin-1-one] | ≤ 0.2 µM
